Article PMC9184463, “Structural basis of ligand binding modes of human EAAT2” (Nature Communications, 2022)

Molecular target: T1, hEAAT2 mutant R478A (Homo sapiens, UniProt P43004, R478A)
T1 construct: Strep Tag II (N); superfolder GFP (sfGFP) (N); expressed in transfected cells; host or cells: HEK293T
Test: whole-cell patch-clamp, hEAAT2 mutant R478A in HEK293T cells
Assay type: cell-based
Conditions: 0 mV; for WAY-213613-inhibited current, normalized (MEAN): R478A
Procedure: Human embryonic kidney 293T (HEK293T) cells were cultured in Dulbecco’s Modified Eagle Medium (DMEM, Gibco) media supplemented with 15% (v/v) fetal bovine serum (FBS, PAN-Biotech) at 37 °C with 5% CO2. HEK293T cells were grown in the culture dishes (d = 3.5 cm) (Thermo Fisher Scientific) for 24 h and then 1 μg hEAAT2 wild-type and mutant plasmids for per dishes were used to transiently transfect HEK293T using 0.7 μg Lipofectamine 2000 Reagent (Thermo Fisher Scientific). Cells were analyzed using electrophysiological experiments between 24 and 40 h after transfection at room temperature (21–25 °C).
Electrophysiological experiments were performed as described previously with a minor modification. External buffer contained 140 mM NaCl, 2 mM MgCl2, 2 mM CaCl2, and 10 mM HEPES (pH = 7.4 with NaOH and osmolarity of ∼310 mosmol L^−1) and while internal pipette solution comprised of 130 mM NaSCN, 2 mM MgCl2, 10 mM EGTA, 10 mM HEPES (pH = 7.4 with NaOH and osmolarity of ∼310 mosmol L^−1) and 10 mM glutamate. 50 mM WAY-213613 stock solutions were prepared in dimethyl sulfoxide (DMSO), followed by dilutions to working concentrations with the above-mentioned external buffer. […] Whole cell patch-clamp experiment recordings were made from isolated GFP-positive HEK293T cells (hEAAT2 wild type and mutants). In all, 3–6 MΩ was used to fire a polished pipette (Sutter Instrument). […] Cells were immersed in the above-mentioned external buffer supplemented with a specified concentration of glutamate or WAY-213613. Glutamate-induced anion current, Na^+-dependent anion leak current and glutamate transport current or WAY-213613 inhibited anion leak currents were recorded using an EPC-10 amplifier (HEKA Electronic) at a 20 kHz sample rate with low pass filter at 5 kHz. All experiments were executed at 0 mV. After the cell current was stabilized, glutamate or WAY-213613 was sustained at the indicated concentrations from external dosing for at least 6 s. Subsequently, the cell was washed away with external buffer to start a new round of applications or end the experiment. The plateau currents were used for the following calculations. For analysis, the data was acquired by PatchMaster program (HEKA Electronic) at 5 s after recording. Nonlinear dose–response relationships were fitted into a Michaelis–Menten-like equation shown as below to obtain the apparent Km and Ki values in the presence of glutamate or WAY-213613.1 I/Imax=Km/i/C+Km/i In this equation, I represent the current at different glutamate or inhibitor concentrations, and Imax represents the maximal current at the saturating concentration of glutamate or inhibitor. [C] represents the concentration of glutamate or inhibitor. Km/i represents the apparent constant.

T1 sequence (P43004 whole entry R478A): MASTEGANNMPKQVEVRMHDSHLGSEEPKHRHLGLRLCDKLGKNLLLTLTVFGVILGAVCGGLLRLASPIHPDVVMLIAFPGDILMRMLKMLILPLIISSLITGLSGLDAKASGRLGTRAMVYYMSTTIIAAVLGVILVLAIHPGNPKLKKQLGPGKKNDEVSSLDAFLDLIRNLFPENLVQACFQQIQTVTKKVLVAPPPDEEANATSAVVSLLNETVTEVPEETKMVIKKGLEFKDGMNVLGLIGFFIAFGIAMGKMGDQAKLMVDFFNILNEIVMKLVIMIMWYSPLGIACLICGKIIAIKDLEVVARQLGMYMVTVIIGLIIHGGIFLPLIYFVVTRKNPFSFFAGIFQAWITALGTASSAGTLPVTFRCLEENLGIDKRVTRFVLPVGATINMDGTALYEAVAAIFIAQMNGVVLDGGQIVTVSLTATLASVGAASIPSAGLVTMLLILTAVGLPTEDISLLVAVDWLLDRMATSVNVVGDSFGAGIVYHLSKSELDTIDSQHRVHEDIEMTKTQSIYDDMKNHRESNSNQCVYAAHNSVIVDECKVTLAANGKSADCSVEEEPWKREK

NC(CC(=O)Nc1ccc(Oc2cc(F)c(F)cc2Br)cc1)C(=O)O (stereo not shown) [WAY-213613]
WAY-213613-inhibited current, normalized (MEAN) (0.3 μM WAY-213613, normalized to current at 100 μM): 0.173 | WAY-213613-inhibited current, normalized (MEAN) (1 μM WAY-213613, normalized to current at 100 μM): 0.3915 | WAY-213613-inhibited current, normalized (MEAN) (3 μM WAY-213613, normalized to current at 100 μM): 0.5586 | WAY-213613-inhibited current, normalized (MEAN) (10 μM WAY-213613, normalized to current at 100 μM): 0.7927 | WAY-213613-inhibited current, normalized (MEAN) (30 μM WAY-213613, normalized to current at 100 μM): 0.9136 | WAY-213613-inhibited current, normalized (MEAN) (100 μM WAY-213613, normalization reference): 1 | Ki (R478A mutant, read-out: apparent Ki): 1.68 µM
